Patent US20180051017A1, “AGENT FOR TREATMENT OF SCHIZOPHRENIA” (Sumitomo Dainippon Pharma Co., Ltd., priority 2002, published 2018)
Where a name gives a salt, the structure may show the parent alone.

Test system: patients with schizophrenia in the acute exacerbation phase
Assay: First stage phase II clinical trial, placebo-controlled double-blind: efficacy (BPRS, PANSS, CGI-S/I)
Format: in vivo, human
Description: According to the procedures as shown in Table 1 as described below, the placebo-controlled double blind experiment was done on 149 patients with schizophrenia in the acute exacerbation phase at 15 facilities in USA. The efficacy and safeness were studied when SM-13496 at a dose of 40 mg or 120 mg, or a placebo was orally administered once a day for 6 weeks after placebo washout.

## O=C1[C@@H]2[C@@H]3CC[C@@H](C3)[C@@H]2C(=O)N1C[C@@H]1CCCC[C@H]1CN1CCN(c2nsc3ccccc23)CC1 [SM-13496, (1R,2S,3R,4S)-N-[(1R,2R)-2-[4-(1,2-benzoisothiazol-3-yl)-1-piperazinyl-methyl]-1-cyclohexylmethyl]-2,3-bicyclo[2.2.1]heptanedicarboximide hydrochloride]
40 mg or 120 mg, 6 weeks after the administration
  Reductions in BPRS, CGI-I and CGI-S scores at end of trial compared to placebo: statistically significant
40 mg orally once a day for 6 weeks, 47 subjects, p 0.002 vs placebo
  Responder (BPRS reduction 20% or more, or CGI-I 1 or 2), Number: 26
40 mg orally once a day for 6 weeks, 47 subjects, p 0.014 vs placebo
  BPRS Total Score, change from before administration at end of trial (LOCF), Average (SD): −10.0
40 mg orally once a day for 6 weeks, 47 subjects, p 0.063 vs placebo
  PANSS Total Score, change from before administration at end of trial (LOCF), Average (SD): −14.1
40 mg orally once a day for 6 weeks, n = 47, p 0.013 vs placebo
  CGI-I at end of trial, Average (SD): 3.2 (1.56)
40 mg- or 120 mg-treated group
  Ratio of responders compared to placebo: statistically significant difference
120 mg orally once a day for 6 weeks, 44 subjects, p 0.003 vs placebo
  BPRS Total Score, change from before administration at end of trial (LOCF), Average (SD): −11.3 (8.89)
120 mg orally once a day for 6 weeks, 44 subjects, p 0.007 vs placebo
  Responder (BPRS reduction 20% or more, or CGI-I 1 or 2), Number: 22
120 mg orally once a day for 6 weeks, 44 subjects, p 0.010 vs placebo
  PANSS Total Score, change from before administration at end of trial (LOCF), Average (SD): −17.4 (15.70)
120 mg orally once a day for 6 weeks, n = 42, p 0.005 vs placebo
  CGI-I at end of trial, Average (SD): 3.0 (1.29)
120 mg, 6 weeks
  Reduction in PANSS score at end of experiment compared to placebo: statistically significant
SM-13496-treated groups, at 2 weeks or later, p<0.05
  BPRS total score (LOCF) change with time compared to placebo (FIG. 1): statistically significantly reduced
